Source: ChEMBL document CHEMBL1268934, “Design, synthesis, and subtype selectivity of 3,6-disubstituted β-carbolines at Bz/GABA(A)ergic receptors. SAR and studies directed toward agents for treatment of alcohol abuse” (Bioorg Med Chem, 2010)

What was measured:
[1] = biological target: GABA-A receptor; alpha-6/beta-3/gamma-2 (Homo sapiens, UniProt P18507+P28472+Q16445); test: Displacement of [3H]flunitrazepam from human recombinant GABAA alpha-6-beta-3-gamma-2 receptor expressed in HEK cells by liquid scintillation counting; type: cell-based, HEK293
[2] = biological target: T1, GABA A receptor alpha-4/beta-3/gamma-2 (Homo sapiens, UniProt P18507+P28472+P48169); test: Displacement of [3H]flunitrazepam from human recombinant GABAA alpha-4-beta-3-gamma-2 receptor expressed in HEK cells by liquid scintillation counting; type: cell-based, HEK293
[3] = biological target: T2, GABA-A receptor; alpha-1/beta-3/gamma-2 (Homo sapiens, UniProt P14867+P18507+P28472); test: Displacement of [3H]flunitrazepam from human recombinant GABAA alpha-1-beta-3-gamma-2 receptor expressed in HEK cells by liquid scintillation counting; type: cell-based, HEK293
T2 sequence (P14867 whole entry): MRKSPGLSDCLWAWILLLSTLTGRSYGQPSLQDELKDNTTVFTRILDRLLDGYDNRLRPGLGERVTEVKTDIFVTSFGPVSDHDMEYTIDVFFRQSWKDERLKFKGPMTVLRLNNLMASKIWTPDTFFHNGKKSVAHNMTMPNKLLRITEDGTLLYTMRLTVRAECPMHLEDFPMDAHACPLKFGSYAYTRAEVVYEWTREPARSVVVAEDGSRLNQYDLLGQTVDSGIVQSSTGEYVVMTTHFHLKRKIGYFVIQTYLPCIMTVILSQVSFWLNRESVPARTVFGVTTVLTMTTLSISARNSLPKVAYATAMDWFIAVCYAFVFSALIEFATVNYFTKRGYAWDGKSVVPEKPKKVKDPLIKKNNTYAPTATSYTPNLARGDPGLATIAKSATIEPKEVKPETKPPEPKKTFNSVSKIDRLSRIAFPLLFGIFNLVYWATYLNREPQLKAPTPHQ
T2 sequence (P18507 whole entry): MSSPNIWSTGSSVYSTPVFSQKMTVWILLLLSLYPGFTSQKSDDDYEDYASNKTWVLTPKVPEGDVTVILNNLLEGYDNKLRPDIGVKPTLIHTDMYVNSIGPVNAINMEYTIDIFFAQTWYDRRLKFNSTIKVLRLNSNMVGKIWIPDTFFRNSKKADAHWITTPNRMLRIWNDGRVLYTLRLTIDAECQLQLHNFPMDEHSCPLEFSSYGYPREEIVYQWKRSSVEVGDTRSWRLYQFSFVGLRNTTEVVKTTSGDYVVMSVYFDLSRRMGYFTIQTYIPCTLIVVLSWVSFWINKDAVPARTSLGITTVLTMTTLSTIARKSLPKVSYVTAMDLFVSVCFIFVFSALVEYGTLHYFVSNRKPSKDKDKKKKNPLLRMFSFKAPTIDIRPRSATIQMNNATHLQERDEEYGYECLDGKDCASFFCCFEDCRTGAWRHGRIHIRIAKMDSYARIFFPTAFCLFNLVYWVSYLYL
T2 sequence (P28472 whole entry): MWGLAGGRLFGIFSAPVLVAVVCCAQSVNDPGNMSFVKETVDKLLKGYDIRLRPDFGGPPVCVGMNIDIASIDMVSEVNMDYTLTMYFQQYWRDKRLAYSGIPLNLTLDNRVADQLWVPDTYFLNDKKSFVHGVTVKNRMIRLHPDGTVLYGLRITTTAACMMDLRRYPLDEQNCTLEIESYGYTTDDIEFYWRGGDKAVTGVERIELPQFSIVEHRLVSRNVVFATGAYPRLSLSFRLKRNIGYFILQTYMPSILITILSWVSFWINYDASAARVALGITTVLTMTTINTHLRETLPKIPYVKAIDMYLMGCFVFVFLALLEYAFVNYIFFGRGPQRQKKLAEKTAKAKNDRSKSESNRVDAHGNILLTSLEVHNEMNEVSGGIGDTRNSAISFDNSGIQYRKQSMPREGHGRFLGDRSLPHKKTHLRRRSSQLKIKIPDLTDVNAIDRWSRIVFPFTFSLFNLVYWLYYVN

[4] = biological target: T3, GABA-A receptor; alpha-2/beta-3/gamma-2 (Homo sapiens, UniProt P18507+P28472+P47869); test: Displacement of [3H]flunitrazepam from human recombinant GABAA alpha-2-beta-3-gamma-2 receptor expressed in HEK cells by liquid scintillation counting; type: cell-based, HEK293
T3 sequence (P18507 whole entry): T2 sequence (P18507 whole entry)
T3 sequence (P28472 whole entry): T2 sequence (P28472 whole entry)
T3 sequence (P47869 whole entry): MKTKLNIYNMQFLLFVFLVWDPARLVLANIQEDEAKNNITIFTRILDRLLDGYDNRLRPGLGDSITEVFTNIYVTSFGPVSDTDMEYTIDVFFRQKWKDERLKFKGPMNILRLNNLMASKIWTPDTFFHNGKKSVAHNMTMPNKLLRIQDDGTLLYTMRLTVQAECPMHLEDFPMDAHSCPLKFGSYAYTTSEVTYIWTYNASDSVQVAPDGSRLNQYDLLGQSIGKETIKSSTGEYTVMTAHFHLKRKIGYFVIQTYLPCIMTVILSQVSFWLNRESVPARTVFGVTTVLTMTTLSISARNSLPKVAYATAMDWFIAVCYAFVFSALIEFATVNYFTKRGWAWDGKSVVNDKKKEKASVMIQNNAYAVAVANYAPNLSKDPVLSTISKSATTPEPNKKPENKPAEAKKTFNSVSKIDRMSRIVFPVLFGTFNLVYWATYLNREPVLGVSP

[5] = biological target: T4, GABA-A receptor; alpha-3/beta-3/gamma-2 (Homo sapiens, UniProt P18507+P28472+P34903); test: Displacement of [3H]flunitrazepam from human recombinant GABAA alpha-3-beta-3-gamma-2 receptor expressed in HEK cells by liquid scintillation counting; type: cell-based, HEK293
T4 sequence (P18507 whole entry): T2 sequence (P18507 whole entry)
T4 sequence (P28472 whole entry): T2 sequence (P28472 whole entry)
T4 sequence (P34903 whole entry): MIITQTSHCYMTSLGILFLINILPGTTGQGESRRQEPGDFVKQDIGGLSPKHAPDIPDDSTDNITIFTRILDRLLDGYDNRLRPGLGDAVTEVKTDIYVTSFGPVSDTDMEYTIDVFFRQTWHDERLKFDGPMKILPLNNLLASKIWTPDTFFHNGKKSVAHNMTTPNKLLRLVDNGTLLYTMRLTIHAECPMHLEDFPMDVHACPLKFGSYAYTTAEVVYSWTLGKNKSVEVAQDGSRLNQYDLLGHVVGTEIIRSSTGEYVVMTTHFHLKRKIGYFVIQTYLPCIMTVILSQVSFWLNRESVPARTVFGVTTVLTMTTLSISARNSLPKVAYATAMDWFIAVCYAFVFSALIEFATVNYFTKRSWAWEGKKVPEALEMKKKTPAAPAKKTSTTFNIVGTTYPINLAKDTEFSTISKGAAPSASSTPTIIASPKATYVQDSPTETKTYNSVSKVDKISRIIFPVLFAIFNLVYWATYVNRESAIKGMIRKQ

[6] = biological target: T5, GABA-A receptor; alpha-5/beta-3/gamma-2 (Homo sapiens, UniProt P18507+P28472+P31644); test: Displacement of [3H]flunitrazepam from human recombinant GABAA alpha-5-beta-3-gamma-2 receptor expressed in HEK cells by liquid scintillation counting; type: cell-based, HEK293
T5 sequence (P18507 whole entry): T2 sequence (P18507 whole entry)
T5 sequence (P28472 whole entry): T2 sequence (P28472 whole entry)
T5 sequence (P31644 whole entry): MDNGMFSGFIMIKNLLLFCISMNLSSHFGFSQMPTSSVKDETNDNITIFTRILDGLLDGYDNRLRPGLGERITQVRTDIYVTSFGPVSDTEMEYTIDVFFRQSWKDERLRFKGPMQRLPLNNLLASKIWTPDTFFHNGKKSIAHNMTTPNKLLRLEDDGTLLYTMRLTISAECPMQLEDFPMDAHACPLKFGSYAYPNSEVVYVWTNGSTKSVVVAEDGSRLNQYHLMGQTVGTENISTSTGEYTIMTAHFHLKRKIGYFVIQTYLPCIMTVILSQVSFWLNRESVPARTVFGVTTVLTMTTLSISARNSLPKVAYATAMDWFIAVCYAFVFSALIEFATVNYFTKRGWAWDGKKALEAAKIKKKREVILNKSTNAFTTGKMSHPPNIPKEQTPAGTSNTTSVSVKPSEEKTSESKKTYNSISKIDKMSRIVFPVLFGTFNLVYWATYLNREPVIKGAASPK

[7] = biological target: GABA-A receptor; alpha-3/beta-3/gamma-2 (Homo sapiens) (UniProt P18507+P28472+P34903); test: Agonist activity at human recombinant GABAA alpha-3-beta-3-gamma-2 receptor expressed in Xenopus oocytes at 1 to 10 uM by patch clamp technique; type: functional, cell-based; details: Oocyte
[8] = biological target: GABA-A receptor; alpha-5/beta-3/gamma-2 (Homo sapiens) (UniProt P18507+P28472+P31644); test: Agonist activity at human recombinant GABAA alpha-5-beta-3-gamma-2 receptor expressed in Xenopus oocytes at 1 to 10 uM by patch clamp technique; type: functional, cell-based; details: Oocyte
[9] = biological target: T1, GABA A receptor alpha-4/beta-3/gamma-2; test: Agonist activity at human recombinant GABAA alpha-4-beta-3-gamma-2 receptor expressed in Xenopus oocytes at 1 to 10 uM by patch clamp technique; type: functional, cell-based; details: Oocyte
[10] = biological target: GABA-A receptor; alpha-1/beta-3/gamma-2 (Homo sapiens) (UniProt P14867+P18507+P28472); test: Agonist activity at human recombinant GABAA alpha-1-beta-3-gamma-2 receptor expressed in Xenopus oocytes at 1 to 10 uM by patch clamp technique; type: functional, cell-based; details: Oocyte
[11] = biological target: GABA-A receptor; alpha-2/beta-3/gamma-2 (Homo sapiens) (UniProt P18507+P28472+P47869); test: Agonist activity at human recombinant GABAA alpha-2-beta-3-gamma-2 receptor expressed in Xenopus oocytes at 1 to 10 uM by patch clamp technique; type: functional, cell-based; details: Oocyte

T1 sequence (P48169 whole entry, one chain of several): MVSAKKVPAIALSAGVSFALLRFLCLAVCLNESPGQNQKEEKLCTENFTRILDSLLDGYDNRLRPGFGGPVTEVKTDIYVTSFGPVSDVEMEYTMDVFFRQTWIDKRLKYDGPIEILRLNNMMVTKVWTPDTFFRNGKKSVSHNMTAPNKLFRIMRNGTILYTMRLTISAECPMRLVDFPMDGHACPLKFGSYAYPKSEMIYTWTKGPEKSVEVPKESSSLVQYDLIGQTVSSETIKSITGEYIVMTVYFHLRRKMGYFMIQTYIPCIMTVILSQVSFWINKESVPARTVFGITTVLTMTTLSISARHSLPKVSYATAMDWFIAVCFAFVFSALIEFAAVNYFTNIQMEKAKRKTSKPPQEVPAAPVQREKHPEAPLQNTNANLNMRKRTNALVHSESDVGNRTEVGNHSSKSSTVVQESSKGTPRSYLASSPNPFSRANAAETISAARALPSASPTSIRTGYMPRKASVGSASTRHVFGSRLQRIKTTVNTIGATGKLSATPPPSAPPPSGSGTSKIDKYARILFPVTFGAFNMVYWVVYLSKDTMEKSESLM
GABA-A receptor; alpha-6/beta-3/gamma-2, sequence (Q16445 whole entry, one chain of several): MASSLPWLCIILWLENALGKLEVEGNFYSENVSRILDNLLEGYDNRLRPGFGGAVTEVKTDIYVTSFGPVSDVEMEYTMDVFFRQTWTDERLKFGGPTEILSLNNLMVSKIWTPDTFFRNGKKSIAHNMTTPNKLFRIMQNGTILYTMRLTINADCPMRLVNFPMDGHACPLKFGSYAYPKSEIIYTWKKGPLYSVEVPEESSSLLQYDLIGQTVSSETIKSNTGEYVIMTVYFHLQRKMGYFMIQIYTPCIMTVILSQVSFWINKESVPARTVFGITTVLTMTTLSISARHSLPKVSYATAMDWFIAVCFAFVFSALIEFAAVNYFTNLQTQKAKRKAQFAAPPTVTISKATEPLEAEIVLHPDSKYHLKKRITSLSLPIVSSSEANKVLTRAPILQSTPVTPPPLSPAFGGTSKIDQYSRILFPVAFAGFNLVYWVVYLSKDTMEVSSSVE

Structure (SMILES): O=C(OCC(F)(F)F)c1cc2c(cn1)[nH]c1ccccc12
- Ki [1]: > 2000 nM
- Ki ([2]; read-out: Ki): > 500 nM
- Ki [3]: 3 nM
- Ki [4]: 24.5 nM
- Ki [5]: 41.7 nM
- Ki [6]: 126 nM

Structure (SMILES): CC(C)(C)OC(=O)c1cc2c3ccccc3nc-2c[nH]1
- Activity [7]: 108%
- Activity [8]: 88%
- Ki ([2]; read-out: Ki): 1000 nM
- Activity [9]: 107%
- Activity [10]: 96%
- Activity [11]: 99%

Structure (SMILES): CCC(C)OC(=O)c1cc2c(cn1)[nH]c1ccccc12 (configuration not stated)
- Ki [1]: > 2000 nM
- Ki ([2]; hek293): Not Active
- Ki [3]: 18 nM
- Ki [4]: 60 nM
- Ki [5]: 116 nM
- Ki [6]: 216 nM

Structure (SMILES): CC(C)(C)OC(=O)c1cc2c(cn1)[nH]c1ccc(I)cc12
- Ki [1]: > 4000 nM
- Ki ([2]; read-out: Ki): > 4000 nM
- Ki [3]: 14.4 nM
- Ki [4]: 44.9 nM
- Ki [5]: 123 nM
- Ki [6]: 65.3 nM

Structure (SMILES): CCC(OC(=O)c1cc2c(cn1)[nH]c1ccccc12)C(F)(F)F (configuration not stated)
- Ki [1]: > 2000 nM
- Ki ([2]; hek293): Not Active

Structure (SMILES): C[C@H](OC(=O)c1cc2c(cn1)[nH]c1ccccc12)C(F)(F)F
- Ki [1]: > 2000 nM
- Ki ([2]; read-out: Ki): > 3000 nM
- Ki [3]: 90 nM
- Ki [4]: 931 nM
- Ki [5]: 172 nM
- Ki [6]: 1850 nM

Structure (SMILES): CCOC(=O)c1ncn2c1CN(C)C(=O)c1cc(F)ccc1-2
- Activity [7]: 118%
- Activity [8]: 96%
- Activity [10]: 99%

Structure (SMILES): C[C@@H](OC(=O)c1cc2c(cn1)[nH]c1ccccc12)C(F)(F)F
- Ki [1]: > 2000 nM
- Ki ([2]; read-out: Ki): > 3000 nM
- Ki [3]: 27 nM
- Ki [4]: 343 nM
- Ki [5]: 453 nM
- Ki [6]: 1850 nM

Structure (SMILES): CC(C)(C)OC(=O)c1cc2c(cn1)[nH]c1ccc(C#Cc3ccc4[nH]c5cnc(C(=O)OC(C)(C)C)cc5c4c3)cc12
- Ki [1]: > 4000 nM
- Ki ([2]; read-out: Ki): > 300 nM
- Ki [3]: 30 nM
- Ki [4]: 124 nM
- Ki [5]: 100 nM
- Ki [6]: > 300 nM

Structure (SMILES): CC[C@H](C)OC(=O)c1cc2c(cn1)[nH]c1ccccc12
- Ki [1]: > 2000 nM
- Ki ([2]; hek293): Not Active

Structure (SMILES): CCCC(=O)c1cc2c(cn1)[nH]c1ccc(F)cc12
- Ki [1]: > 2500 nM
- Ki ([2]; hek293): Not Active
- Ki [3]: 3.7 nM
- Ki [4]: 27 nM
- Ki [5]: 40 nM
- Ki [6]: 254 nM

Structure (SMILES): C[Si](C)(C)C#Cc1ccc2[nH]c3cnc(C(=O)OCC(F)(F)F)cc3c2c1
- Ki [1]: > 3000 nM
- Ki ([2]; read-out: Ki): 200 nM
- Ki [3]: 17 nM
- Ki [4]: 59 nM
- Ki [5]: 88 nM
- Ki [6]: 1440 nM

Structure (SMILES): CC(C)(C)OC(=O)c1ccc2[nH]c3ccc(C#Cc4ccc5[nH]c6ccc(C(=O)OC(C)(C)C)cc6c5c4)cc3c2c1
- Ki [1]: > 4000 nM
- Ki [3]: 30 nM
- Ki [4]: 124 nM
- Ki [5]: 100 nM
- Ki [6]: > 300 nM

Structure (SMILES): CCOC(=O)c1ncc2[nH]c3cccc(OC(C)C)c3c2c1C
- Activity [8]: 96%
